We go through 54 compounds from ChEMBL document CHEMBL1135674, “A new series of estrogen receptor modulators that display selectivity for estrogen receptor beta” (J Med Chem, 2002).

Each structure is given as a SMILES string. Activity calls are given as the source filed them. The calls are words filed in the database; no cut-off is given here. Bounds are passed on as bounds.

In test [1] the target is T1, Estrogen receptor beta (Homo sapiens, UniProt Q92731).
Test [2] deals with T2, Estrogen receptor (Homo sapiens, UniProt P03372).
T2 sequence (P03372 whole entry): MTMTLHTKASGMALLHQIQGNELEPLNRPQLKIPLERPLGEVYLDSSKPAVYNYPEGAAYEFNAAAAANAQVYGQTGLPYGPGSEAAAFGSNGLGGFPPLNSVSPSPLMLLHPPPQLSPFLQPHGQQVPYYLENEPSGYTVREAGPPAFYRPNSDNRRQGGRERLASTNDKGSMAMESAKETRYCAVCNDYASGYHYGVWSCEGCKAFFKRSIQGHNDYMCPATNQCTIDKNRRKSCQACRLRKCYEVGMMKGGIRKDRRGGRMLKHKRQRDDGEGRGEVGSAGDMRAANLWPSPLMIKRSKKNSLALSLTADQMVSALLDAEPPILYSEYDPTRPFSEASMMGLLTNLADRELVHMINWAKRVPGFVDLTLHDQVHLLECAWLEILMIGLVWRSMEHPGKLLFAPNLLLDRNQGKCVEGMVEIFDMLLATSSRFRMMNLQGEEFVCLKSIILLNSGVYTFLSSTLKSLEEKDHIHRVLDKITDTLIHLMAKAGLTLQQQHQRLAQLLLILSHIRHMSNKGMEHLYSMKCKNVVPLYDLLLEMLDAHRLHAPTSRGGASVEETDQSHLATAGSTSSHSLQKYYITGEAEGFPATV

Test [3] deals with T2, Estrogen receptor. The source holds these as a separate data set.
Test [4] concerns the target T1, Estrogen receptor beta. This is another data set of the same source.
Test [5] has as its target T1, Estrogen receptor beta. As to conditions: T47D.
Test [6] deals with T2, Estrogen receptor. The source holds these as a separate data set.

T1 sequence (Q92731 whole entry): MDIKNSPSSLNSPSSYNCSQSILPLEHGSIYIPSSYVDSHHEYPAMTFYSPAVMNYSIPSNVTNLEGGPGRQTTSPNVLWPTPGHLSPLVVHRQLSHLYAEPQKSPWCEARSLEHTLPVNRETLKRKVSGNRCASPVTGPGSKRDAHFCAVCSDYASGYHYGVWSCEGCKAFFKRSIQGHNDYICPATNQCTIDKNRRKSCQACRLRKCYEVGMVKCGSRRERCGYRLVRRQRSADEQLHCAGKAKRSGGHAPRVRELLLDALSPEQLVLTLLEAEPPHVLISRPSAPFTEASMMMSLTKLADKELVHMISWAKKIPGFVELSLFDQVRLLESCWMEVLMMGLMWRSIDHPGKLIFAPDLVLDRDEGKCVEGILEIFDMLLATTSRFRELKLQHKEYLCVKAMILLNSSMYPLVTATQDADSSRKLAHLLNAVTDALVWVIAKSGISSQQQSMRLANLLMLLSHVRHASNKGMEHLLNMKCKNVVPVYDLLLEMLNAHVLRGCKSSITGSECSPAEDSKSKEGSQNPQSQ

Turning to `CN(CCCc1ccc(Cl)cc1)c1nc(NCCc2ccc(O)cc2)nc(N2CCN(Cc3ccncc3)CC2)n1`, the Ki on Estrogen receptor beta [1] was found to be 0.115 µM; at Estrogen receptor [2], 0.81 µM.
Consider `CN(CCCc1ccc(Cl)cc1)c1nc(NCCc2ccc(O)cc2)nc(N2CCN(Cc3ccccn3)CC2)n1`, for which, at Estrogen receptor beta [1], the affinity corresponds to a Ki of 0.05 µM.
Turning to `CN(C)C(=O)CN1CCN(c2nc(NCCc3ccc(O)cc3)nc(N(C)CCCc3ccc(Cl)cc3)n2)CC1`, the Ki on Estrogen receptor beta [1] was found to be 0.27 µM; on Estrogen receptor [2], 3 µM.
As for `CN(CCCc1ccc(Cl)cc1)c1nc(NCCc2ccc(O)cc2)nc(N2CCN(CCO)CC2)n1`, the results for the Ki on Estrogen receptor beta [1] and on Estrogen receptor [2] were 0.015 µM and 0.395 µM, respectively. Besides, the figures for the half-maximal inhibitory concentration (IC50) at Estrogen receptor [3] and on Estrogen receptor beta [4] were 0.03 µM and 0.015 µM, respectively. Further, the IA entry on Estrogen receptor beta [5] is “inactive”. In addition, on Estrogen receptor [6], the midpoint of the response, the EC50, lay at 0.18 µM.
Consider `Cc1ccc(CCCN(C)c2nc(NCCc3ccc(O)cc3)nc(N3CCNCC3)n2)cc1`, for which the Ki at Estrogen receptor beta [1] was 0.1 µM; on Estrogen receptor [2] it was 1.14 µM.
Regarding `CN1CCN(c2nc(NCCCCc3ccccc3)nc(NCCc3ccc(O)cc3)n2)CC1`, the Ki on Estrogen receptor beta [1] was 0.49 µM; on Estrogen receptor [2] it was 0.415 µM.
On the same counts, the results for `CN(CCCc1ccc(Cl)cc1)c1nc(NCCc2ccc(O)cc2)nc(N2CCN(C(=O)N3CCOCC3)CC2)n1` are 0.4 µM and 2.36 µM.
As for `CN(CCCc1ccc(Cl)cc1)c1nc(NCCc2ccc(O)cc2)nc(N2CCN(CC(=O)c3ccccc3)CC2)n1`, the Ki at Estrogen receptor beta [1] was 0.2 µM; on Estrogen receptor [2], 2.04 µM.
The matching figures for `CN1CCN(c2nc(NCCc3ccc(O)cc3)nc(OCCCc3ccccc3)n2)CC1`: 1 µM and 2.4 µM.
As for `CN(CCCc1ccc(F)cc1)c1nc(NCCc2ccc(O)cc2)nc(N2CCNCC2)n1`, the inhibitory constant (Ki) at Estrogen receptor beta [1] worked out at 0.015 µM; on Estrogen receptor [2], 0.38 µM. Besides, the figures for the IC50 against Estrogen receptor [3] and at Estrogen receptor beta [4] were 0.24 µM and 0.015 µM, respectively. Further, the IA entry on Estrogen receptor beta [5] was “inactive”. The same compound gave an EC50 at Estrogen receptor [6] of 0.2 µM.
On to `CN(CCCc1ccc(F)c(F)c1)c1nc(NCCc2ccc(O)cc2)nc(N2CCNCC2)n1`, for which the Ki on Estrogen receptor beta [1] was found to be 0.02 µM; at Estrogen receptor [2], 0.2 µM.
Regarding `CN1CCN(c2nc(NCCc3ccc(O)cc3)nc(N(C)CCCc3ccc(Cl)cc3)n2)CC1`, the Ki is 0.015 µM at Estrogen receptor beta [1] and 0.145 µM at Estrogen receptor [2].
Consider `Oc1ccc(CCNc2nc(NCCCc3ccc(Cl)cc3)nc(N3CCNCC3)n2)cc1`, for which the Ki amounted to 0.055 µM at Estrogen receptor beta [1] and 0.2 µM on Estrogen receptor [2].
Take `Oc1ccc(CCNc2nc(NC/C=C/c3ccccc3)nc(N3CCNCC3)n2)cc1`: the results for the inhibition constant (Ki) on Estrogen receptor beta [1] and on Estrogen receptor [2] were 4.2 µM and 6.87 µM, respectively.
On the same counts, the results for `CN(CCCc1ccc(Cl)cc1)c1nc(NCCc2ccc(O)cc2)nc(N2CCN(C(=O)COc3ccccc3)CC2)n1` are 0.1 µM and 0.57 µM.
On the same counts, the results for `CN(CCCc1ccc(Cl)cc1)c1nc(NCCc2ccc(O)cc2)nc(N2C[C@@H]3C[C@H]2CN3)n1` are 0.105 µM and 2.28 µM.
On the same counts, the results for `CN(CCCc1ccc(Cl)cc1Cl)c1nc(NCCc2ccc(O)cc2)nc(N2CCNCC2)n1` are 0.025 µM and 0.125 µM.
`CCC(=O)CCN1CCN(c2nc(NCCc3ccc(O)cc3)nc(N(C)CCCc3ccc(Cl)cc3)n2)CC1`: the Ki on Estrogen receptor beta [1] came to 0.04 µM; at Estrogen receptor [2], 0.25 µM.
On the same counts, the results for `CN(CCCc1ccc(Cl)cc1)c1nc(NCCc2ccc(O)cc2)nc(N2CCN(C(=O)Nc3ccc(Cl)cc3)CC2)n1` are 0.425 µM and 0.855 µM.
On the same counts, the results for `CN(CCCc1ccc(Cl)cc1)c1nc(NCCc2ccc(O)cc2)nc(N2CCN(C3CCCC3)CC2)n1` are 0.04 µM and 0.18 µM.
The matching figures for `CN1CCN(c2nc(NCCCc3ccccc3)nc(NCCc3ccc(O)cc3)n2)CC1`: 0.49 µM and 3.24 µM.
On to `CN(CCCc1ccc(Cl)cc1)c1nc(NCCc2ccc(O)cc2)nc(N2CCN(c3ccccc3)CC2)n1`, for which the Ki at Estrogen receptor beta [1] is 0.89 µM; at Estrogen receptor [2] it was 6.32 µM.
On Estrogen receptor beta [1], `Cc1nc(CN2CCN(c3nc(NCCc4ccc(O)cc4)nc(N(C)CCCc4ccc(Cl)cc4)n3)CC2)cs1` registered a Ki of 0.025 µM. This compound yielded an IC50 against Estrogen receptor beta [4] of 0.005 µM. Further, at Estrogen receptor beta [5], the IA result is “inactive”.
Take `Oc1ccc(CCNc2nc(SCCOc3ccc(Cl)cc3)nc(N3CCNCC3)n2)cc1`: the Ki came to 0.09 µM on Estrogen receptor beta [1] and 0.57 µM on Estrogen receptor [2].
On the same counts, the results for `Oc1ccc(CCNc2nc(NCCc3ccccc3)nc(N3CCNCC3)n2)cc1` are 1.75 µM and 2.37 µM.
As to `CN(CCCc1ccc(Cl)cc1)c1nc(NCCc2ccc(O)cc2)nc(N2CCN(S(=O)(=O)/C=C/c3ccccc3)CC2)n1`, the Ki stood at 0.225 µM on Estrogen receptor beta [1] and 1.3 µM on Estrogen receptor [2].
On the same counts, the results for `CN(CCCc1ccc2c(c1)OCO2)c1nc(NCCc2ccc(O)cc2)nc(N2CCNCC2)n1` are 0.03 µM and 0.56 µM.
For `C[C@@H]1CN(c2nc(NCCc3ccc(O)cc3)nc(N(C)CCCc3ccc(Cl)cc3)n2)C[C@H](C)N1`, the Ki on Estrogen receptor beta [1] came out at 0.015 µM; at Estrogen receptor [2], 0.06 µM.
In the case of `CCN(CC)C(=O)N1CCN(c2nc(NCCc3ccc(O)cc3)nc(N(C)CCCc3ccc(Cl)cc3)n2)CC1`, the Ki at Estrogen receptor beta [1] is 0.79 µM; at Estrogen receptor [2], over 10 µM.
The matching figures for `CN(CCCc1ccc(C#N)cc1)c1nc(NCCc2ccc(O)cc2)nc(N2CCNCC2)n1`: 0.09 µM and 0.57 µM.
For `CN(CCCc1ccccc1Cl)c1nc(NCCc2ccc(O)cc2)nc(N2CCNCC2)n1`, the figures for the inhibition constant Ki on Estrogen receptor beta [1] and on Estrogen receptor [2] were 0.04 µM and 0.68 µM, respectively.
In turn, `CN(CCCc1ccc(Cl)cc1)c1nc(NCCc2ccc(O)cc2)nc(N2CCN(Cc3cccnc3)CC2)n1` registered a Ki on Estrogen receptor beta [1] of 0.035 µM.
Regarding `Oc1ccc(CCNc2nc(SCCCc3ccc(Cl)cc3)nc(N3CCNCC3)n2)cc1`, the IA result at Estrogen receptor beta [5] was “inactive”.
Take `CCN(CCCc1ccc(Cl)cc1)c1nc(NCCc2ccc(O)cc2)nc(N2CCNCC2)n1`: the results for the Ki on Estrogen receptor beta [1] and at Estrogen receptor [2] were 0.1 µM and 0.83 µM, respectively.
The matching figures for `COc1ccc(C(=O)N2CCN(c3nc(NCCc4ccc(O)cc4)nc(N(C)CCCc4ccc(Cl)cc4)n3)CC2)cc1`: 0.11 µM and 1.13 µM.
The matching figures for `CC(C)S(=O)(=O)N1CCN(c2nc(NCCc3ccc(O)cc3)nc(N(C)CCCc3ccc(Cl)cc3)n2)CC1`: 0.6 µM and over 10 µM.
As to `CN(C[C@@H]1C[C@@H]1c1ccccc1)c1nc(NCCc2ccc(O)cc2)nc(N2CCNCC2)n1` (relative stereo), the IA result on Estrogen receptor beta [5] is “inactive”.
For `CN(CCCc1ccc(Cl)cc1)c1nc(NCCc2ccc(O)cc2)nc(N2CCN(Cc3ccccc3)CC2)n1`, the Ki on Estrogen receptor beta [1] came to 0.008 µM; on Estrogen receptor [2] it was 0.12 µM.
In the case of `CN1CCN(c2nc(NCCCc3ccccc3)nc(N3CCc4cc(O)ccc4C3)n2)CC1`, the Ki on Estrogen receptor beta [1] and on Estrogen receptor [2] was over 10 µM each time.
`CN1CCN(c2nc(NCCCc3ccccc3)nc(NCCc3cccc(O)c3)n2)CC1`: the Ki on Estrogen receptor beta [1] is 4.25 µM; at Estrogen receptor [2], over 10 µM.
Regarding `Oc1ccc(CCNc2nc(NCCCc3ccccc3)nc(N3CCNCC3)n2)cc1`, the values for the Ki on Estrogen receptor beta [1] and at Estrogen receptor [2] were 0.2 µM and 1.38 µM, respectively.
On the same counts, the results for `CN1CCN(c2nc(NCCCc3ccccc3)nc(NCc3ccc(O)cc3)n2)CC1` are 3.69 µM and 5.13 µM.
Turning to `CN1CCN(c2nc(NCCCc3ccccc3)nc(NC3CCc4ccc(O)cc4C3)n2)CC1` (stereo not drawn), the Ki on Estrogen receptor beta [1] and on Estrogen receptor [2] was over 10 µM throughout.
For the compound `CN(CCCC1CCCCC1)c1nc(NCCc2ccc(O)cc2)nc(N2CCNCC2)n1`, the Ki is 0.82 µM at Estrogen receptor beta [1] and 1.42 µM on Estrogen receptor [2].
As to `CN(CCCc1ccc(Cl)cc1)c1nc(NCCc2ccc(O)cc2)nc(N2CCN(S(=O)(=O)Cc3ccccc3)CC2)n1`, the Ki on Estrogen receptor beta [1] was 0.49 µM; on Estrogen receptor [2], 1.45 µM.
The matching figures for `CN(CCCc1ccc(C(F)(F)F)cc1)c1nc(NCCc2ccc(O)cc2)nc(N2CCNCC2)n1`: 0.075 µM and 0.48 µM.
As for `CN(CCCc1ccc(Cl)cc1)c1nc(NCCc2ccc(O)cc2)nc(N2CCN(CC(=O)C(C)(C)C)CC2)n1`, the Ki on Estrogen receptor beta [1] was found to be 0.21 µM; at Estrogen receptor [2], 1.02 µM.
For the compound `CN1CCN(c2nc(NCCc3ccc(O)cc3)nc(NC3CCc4ccccc43)n2)CC1` (stereo not drawn), the Ki at Estrogen receptor beta [1] and at Estrogen receptor [2] was over 10 µM throughout.
With `CN(CCOc1ccc(Cl)cc1)c1nc(NCCc2ccc(O)cc2)nc(N2CCNCC2)n1`, the Ki worked out at 0.17 µM at Estrogen receptor beta [1] and 1 µM on Estrogen receptor [2].
`CN(CCCc1ccc(Cl)cc1)c1nc(NCCc2ccc(O)cc2)nc(N2CCN(C(=O)CCc3ccccc3)CC2)n1`: the Ki on Estrogen receptor beta [1] amounted to 0.11 µM; at Estrogen receptor [2], 1.05 µM.
Consider `CN1CCN(c2nc(NCCc3ccc(O)cc3)nc(SCCCc3ccccc3)n2)CC1`, for which the Ki at Estrogen receptor beta [1] is 0.05 µM; at Estrogen receptor [2], 0.27 µM.
Take `CN1CCN(c2nc(NCCCc3ccccc3)nc(NC3CCc4cc(O)ccc4C3)n2)CC1` (stereo not drawn): the Ki worked out at 0.17 µM at Estrogen receptor beta [1] and 1 µM at Estrogen receptor [2].
On the same counts, the results for `CN1CCN(c2nc(NCCCc3ccccc3)nc(N3CCCC(c4ccc(O)cc4)C3)n2)CC1` (stereo not drawn) are over 10 µM and over 10 µM.
For the compound `C=CCN1CCN(c2nc(NCCc3ccc(O)cc3)nc(N(C)CCCc3ccc(Cl)cc3)n2)CC1`, the inhibitory constant (Ki) on Estrogen receptor beta [1] stood at 0.03 µM; on Estrogen receptor [2], 0.36 µM.

In general, Ki refers to a dissociation constant, usually derived from enzyme kinetics or from competition with a known ligand. What is called IC50 is the concentration at which inhibition is half-maximal. A lower IC50 goes with inhibition by little substance. Broadly, the EC50 is the concentration giving half of the maximal effect. Read a low EC50 as greater potency.
